Experimental data published in patent publication US20150258127A1, “METHODS FOR PREVENTING ANTIPHOSPHOLIPID SYNDROME (APS)” (INSERM (INSTITUT NATIONAL DE LA SANTÉ ET DE LA RECHERCHE …, priority 2012, published 2015).
Like-named read-outs stand apart in the source and are kept apart here.

What was measured:
[1] = tested on: P-AKT (Ser^473) (mTORC2) in human micro vascular endothelial cells (HMEC); test: Western blot of P-AKT (Ser473) (mTORC2) in HMEC exposed to APA IgG; type: cell-based; conditions: HMEC pretreated one hour with inhibitor (PP242 0.5 μM; LY294002 20 μM), then APA IgG 5 minutes
Description: (§1) All experiments were performed in duplicates.
(§2) Western blots were performed as previously described^28. […] Images were acquired using Fusion FX7 system (Vilber Loumart) and analysed using Bio-1D software (Vilber Loumart).

[2] = tested on: P-S6RP (mTORC1) in human micro vascular endothelial cells (HMEC); test: Western blot of P-S6RP (mTORC1) in HMEC exposed to APA IgG; type: cell-based; conditions: HMEC pretreated one hour with inhibitor (PP242 0.5 μM), then APA IgG 5 minutes
Description: as §1, §2

[3] = Cyclosporine, tacrolimus and sirolimus serum levels in transplant recipients; type: in vivo; conditions: human, 12 months post-transplantation, mean ± SEM
Description: (§3) The serum creatinine level was measured using a Synchron Cx4 autoanalyzer (Beckman Coulter, Villepinte, France). The glomerular filtration rate (GFR) was evaluated by iohexol clearance at 3- and 12-months post transplant as previously described^25. Cyclosporine and tacrolimus serum levels were determined by radioimmunoas say and sirolimus serum levels by high-performance liquid chromatography^26.

[4] = tested on: kidney transplant recipients with antiphospholipid antibodies (Tx APA+); test: Kidney transplant recipients cohort: vascular lesions, mGFR, allograft survival; type: in vivo, human
Excerpt: Briefly, the inventors studied a first group of transplant recipients with APA+ (Tx APA+, n=37) and a control group of transplants recipients without APA− (Tx APA−, n=59) engrafted during the same period. These patients were followed in the Transplant unit of Necker Hospital. All patients with functioning allograft had surveillances biopsies and measured glomerular filtration rate (mGFR) at 3- and 12-months post transplantation. Patients had similar immunosuppressive regimen consisting in steroids, purine inhibitor and calcineurine inhibitor, except for thirteen and ten patients in the Tx APA− and Tx APA+ group, respectively, that received sirolimus starting at day 0 instead of calcineurin inhibitor.
as §3
Biopsy samples and morphological analysis: Human kidney biopsies were either fixed, in alcoholic Bouin's solution (native kidneys) or in alcohol-formalin-acetic acid solution (transplant kidneys). Carotid and left anterior descending arteries from autopsy cases were fixed in formalin. All samples were then embedded in paraffin. […] Kidney biopsies were independently examined and scored by two pathologists at Necker Hospital. Lesions related to APS-nephropathy were quantified according to the usual criteria^12. For each biopsy, the number of vessels displaying fibrous intimal hyperplasia were counted in all the fields of the section, and the data were expressed as the number of damaged vessels for the total number of vascular sections. Lesions related to allograft nephropathy were evaluated according to the Banff classification^27, which takes into account glomerular, tubular and interstitial changes. […]

[5] = tested on: kidney allograft microcirculation inflammation; test: Microcirculation inflammation in kidney biopsies, Banff classification; type: in vivo, human; conditions: Tx aPL+ Siro+, mean ± SEM
Excerpt: Biopsy samples and morphological analysis: Human kidney biopsies were either fixed, in alcoholic Bouin's solution (native kidneys) or in alcohol-formalin-acetic acid solution (transplant kidneys). Carotid and left anterior descending arteries from autopsy cases were fixed in formalin. All samples were then embedded in paraffin. Four-μm sections were stained with Periodic Acid Schiff (PAS), Masson's trichrome and hematoxyin and eosin (H&E). […] Kidney biopsies were independently examined and scored by two pathologists at Necker Hospital. Lesions related to APS-nephropathy were quantified according to the usual criteria^12. For each biopsy, the number of vessels displaying fibrous intimal hyperplasia were counted in all the fields of the section, and the data were expressed as the number of damaged vessels for the total number of vascular sections. Lesions related to allograft nephropathy were evaluated according to the Banff classification^27, which takes into account glomerular, tubular and interstitial changes. Autopsy cases were carefully examined by two pathologists at La Pitie Salpetiere Hospital. Vascular lesions, and in particular fibrous intimal hyperplasia, were searched for and characterized in all the tissues.

With `O=c1cc(N2CCOCC2)oc2c(-c3ccccc3)cccc12` [LY294002, 2-(4-Morpholinyl)-8-phenyl-4H-1-benzopyran-4-one] the “APA-induced AKT phosphorylation / activation of the AKT pathway” value [1] was “completely prevent”.

For `CC(C)n1nc(-c2cc3cc(O)ccc3[nH]2)c2c(N)ncnc21` [PP242], the “APA-induced S6RP phosphorylation” value [2] was “completely abolished”.

In the case of `C=CC[C@@H]1/C=C(\C)C[C@H](C)C[C@H](OC)[C@H]2O[C@@](O)(C(=O)C(=O)N3CCCC[C@H]3C(=O)O[C@H](/C(C)=C/[C@@H]3CC[C@@H](O)[C@H](OC)C3)[C@H](C)[C@@H](O)CC1=O)[C@H](C)C[C@@H]2OC` [Tacrolimus], the concentration at 12 months ([3]; Tx aPL+ Sirolimus− (n = 27), read-out: 12-Mo Tacrolimus trough levels) is reported as 10.3 ± 5.9 ng/mL and the concentration at 12 months ([3]; Tx aPL− (n = 59), read-out: 12-Mo Tacrolimus trough levels) is reported as 10 ± 6 ng/mL.

In the case of `CO[C@H]1C[C@@H]2CC[C@@H](C)[C@@](O)(O2)C(=O)C(=O)N2CCCC[C@H]2C(=O)O[C@H]([C@H](C)C[C@@H]2CC[C@@H](O)[C@H](OC)C2)CC(=O)[C@H](C)/C=C(\C)[C@@H](O)[C@@H](OC)C(=O)[C@H](C)C[C@H](C)/C=C/C=C/C=C/1C` [sirolimus, rapamycin], the “measured glomerular filtration rate (mGFR)” value ([4]; Tx APA+ Siro+ patients, 12 months post transplantation, 39.6±14.6 in APA+ Siro−) is reported as 56 ± 10.8 mL/min, the death-censored allograft survival ([4]; Tx aPL+ recipients, 12% without sirolimus) is reported as 70% and the allograft survival rate ([4]; transplant recipients with antiphospholipid antibodies, 8% without sirolimus, up to 144 months post transplantation) is reported as 70%. The concentration at 12 months ([3]; Tx aPL+ Sirolimus+ (n = 10), read-out: 12-Mo Sirolimus levels) was 18 ± 9 ng/mL, the concentration at 12 months ([3]; Tx aPL− (n = 59), read-out: 12-Mo Sirolimus levels) was 16 ± 2 ng/mL and the “C4d (C4 deposits), Banff score” value ([5]; Month 3 post-Tx) was 0.2 ± 0.4. For the same compound, the “g (Glomerulitis), Banff score” value ([5]; Month 3 post-Tx) was 0.1 ± 0.4, the “ptc (Peritubular Capillaritis), Banff score” value ([5]; Month 3 post-Tx) was 0.1 ± 0.4 and the “Banff microcirculation inflammation score” value ([5]; Month 12 post-Tx) was 0.1 ± 0.3. The “C4d (C4 deposits), Banff score” value ([5]; Month 12 post-Tx) was 0.1 ± 0.3 and the “ptc (Peritubular Capillaritis), Banff score” value ([5]; Month 12 post-Tx) was 0.1 ± 0.3.
